This is an account of results in article PMC12136037, “Type II kinase inhibitors that target Parkinson’s disease–associated LRRK2” (Science Advances, 2025).

What all share (assay): DSF 100 kinase selectivity screen;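 further: compound tested at 20 µM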
Holding throughout (format): binding

Test [1] deals with T1, ~100 representative kinases (Homo sapiens, UniProt Q99986).
T1 construct: Recombinant protein kinase domains with a concentration of 2 μM
T1 sequence (Q99986 1-396): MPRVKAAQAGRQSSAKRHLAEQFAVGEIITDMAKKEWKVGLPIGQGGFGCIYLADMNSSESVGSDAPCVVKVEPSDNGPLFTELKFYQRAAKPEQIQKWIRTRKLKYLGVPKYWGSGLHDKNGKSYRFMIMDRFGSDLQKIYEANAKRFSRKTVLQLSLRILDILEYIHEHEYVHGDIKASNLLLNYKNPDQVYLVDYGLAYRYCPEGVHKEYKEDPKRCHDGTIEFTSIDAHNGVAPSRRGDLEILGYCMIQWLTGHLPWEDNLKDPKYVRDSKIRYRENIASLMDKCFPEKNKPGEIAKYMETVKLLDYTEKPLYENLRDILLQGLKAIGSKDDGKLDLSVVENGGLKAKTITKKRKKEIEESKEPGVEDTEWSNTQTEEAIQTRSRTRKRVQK
The settings on record: Protein VRK1; DSF; average of three replicates. The essentials: (§1)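 Each kinase domain, at 2 μM, is mixed with 20 μM test compound and SYPRO Orange in Hepes (20 mM, pH 7.5) with 500 mM NaCl. Temperature is then raised at 3°C/min and fluorescence-monitored unfolding yields the melting temperature change, ΔTm in degrees Celsius.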

Test [2] deals with T2, ~100 representative kinases (Homo sapiens, UniProt O75582).
T2 construct: Recombinant protein kinase domains with a concentration of 2 μM
To be noted: Protein RPS6KA5; DSF; average of three replicates. The procedure, abridged:
as §1

For test [3], the target named is T3, ~100 representative kinases (Homo sapiens, UniProt P49841).
T3 construct: Recombinant protein kinase domains with a concentration of 2 μM
To be noted: protein GSK3B; average of three replicates. The essentials:
as §1

The target of test [4] is T4, ~100 representative kinases (Homo sapiens, UniProt Q8TDX7).
T4 construct: Recombinant protein kinase domains with a concentration of 2 μM
To be noted: protein NEK7; average of three replicates. The procedure, abridged: as §1

Test [5] concerns the target T5, ~100 representative kinases (Homo sapiens, UniProt P27448).
T5 construct: Recombinant protein kinase domains with a concentration of 2 μM
To be noted: protein MARK3; average of three replicates. The essentials: as §1

The target of test [6] is T6, ~100 representative kinases (Homo sapiens, UniProt Q12866).
T6 construct: Recombinant protein kinase domains with a concentration of 2 μM
T6 sequence (Q12866 21-999): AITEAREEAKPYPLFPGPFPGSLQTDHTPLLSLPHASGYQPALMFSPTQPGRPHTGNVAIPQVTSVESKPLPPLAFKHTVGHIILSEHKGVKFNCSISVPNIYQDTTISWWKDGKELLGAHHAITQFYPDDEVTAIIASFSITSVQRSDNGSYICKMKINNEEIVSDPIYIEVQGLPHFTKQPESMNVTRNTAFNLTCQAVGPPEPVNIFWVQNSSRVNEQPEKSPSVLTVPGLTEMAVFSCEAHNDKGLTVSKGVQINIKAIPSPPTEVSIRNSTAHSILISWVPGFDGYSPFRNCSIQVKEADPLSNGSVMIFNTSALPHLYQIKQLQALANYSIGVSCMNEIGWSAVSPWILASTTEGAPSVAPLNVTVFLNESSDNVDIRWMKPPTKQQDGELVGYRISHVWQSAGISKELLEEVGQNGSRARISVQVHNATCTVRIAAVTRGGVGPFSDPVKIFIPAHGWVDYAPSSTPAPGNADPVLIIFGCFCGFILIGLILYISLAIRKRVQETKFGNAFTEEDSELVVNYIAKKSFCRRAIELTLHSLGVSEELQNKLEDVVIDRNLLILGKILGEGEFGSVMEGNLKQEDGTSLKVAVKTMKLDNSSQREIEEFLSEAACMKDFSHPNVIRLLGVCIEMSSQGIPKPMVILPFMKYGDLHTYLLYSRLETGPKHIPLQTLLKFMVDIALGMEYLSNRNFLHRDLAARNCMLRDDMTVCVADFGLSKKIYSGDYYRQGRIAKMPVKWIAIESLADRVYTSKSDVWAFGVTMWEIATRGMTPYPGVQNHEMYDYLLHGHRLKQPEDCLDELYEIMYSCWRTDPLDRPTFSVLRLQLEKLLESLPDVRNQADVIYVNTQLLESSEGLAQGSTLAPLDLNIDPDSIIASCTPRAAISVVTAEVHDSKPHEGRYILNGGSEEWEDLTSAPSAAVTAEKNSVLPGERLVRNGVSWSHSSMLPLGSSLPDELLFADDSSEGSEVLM
To be noted: protein MERTK; average of three replicates. The essentials:
as §1

Test [7] concerns the target T7, ~100 representative kinases (Homo sapiens, UniProt Q16566).
T7 construct: Recombinant protein kinase domains with a concentration of 2 μM
T7 sequence (Q16566 1-473): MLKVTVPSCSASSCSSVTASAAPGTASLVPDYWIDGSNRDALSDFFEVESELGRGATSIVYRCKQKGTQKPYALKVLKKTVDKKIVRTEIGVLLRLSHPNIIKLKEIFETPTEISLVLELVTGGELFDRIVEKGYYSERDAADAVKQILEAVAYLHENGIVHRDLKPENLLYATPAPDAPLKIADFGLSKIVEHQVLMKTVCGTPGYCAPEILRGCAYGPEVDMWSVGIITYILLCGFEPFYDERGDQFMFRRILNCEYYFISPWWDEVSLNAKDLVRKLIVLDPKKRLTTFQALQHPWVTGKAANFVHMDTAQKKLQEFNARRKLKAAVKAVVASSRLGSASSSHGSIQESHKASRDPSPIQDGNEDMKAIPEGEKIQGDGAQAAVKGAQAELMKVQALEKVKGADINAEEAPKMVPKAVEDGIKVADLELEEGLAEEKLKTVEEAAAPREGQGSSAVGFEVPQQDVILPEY
The settings on record: Protein CAMK4; average of three replicates. The essentials: as §1

Test [8] has as its target T8, ~100 representative kinases (Homo sapiens, UniProt P68400).
T8 construct: Recombinant protein kinase domains with a concentration of 2 μM
The settings on record: Protein CK2A1; average of three replicates. The procedure, abridged: as §1

The target of test [9] is T9, ~100 representative kinases (Homo sapiens, UniProt P15056).
T9 construct: Recombinant protein kinase domains with a concentration of 2 μM
To be noted: Protein BRAF; average of three replicates. The essentials: as §1

Test [10] concerns the target T10, ~100 representative kinases (Homo sapiens, UniProt Q9UEW8).
T10 construct: Recombinant protein kinase domains with a concentration of 2 μM
The settings on record: Protein STK39; DSF; average of three replicates. The procedure, abridged: as §1

T3 sequence (P49841 whole entry, the tested form may be a part): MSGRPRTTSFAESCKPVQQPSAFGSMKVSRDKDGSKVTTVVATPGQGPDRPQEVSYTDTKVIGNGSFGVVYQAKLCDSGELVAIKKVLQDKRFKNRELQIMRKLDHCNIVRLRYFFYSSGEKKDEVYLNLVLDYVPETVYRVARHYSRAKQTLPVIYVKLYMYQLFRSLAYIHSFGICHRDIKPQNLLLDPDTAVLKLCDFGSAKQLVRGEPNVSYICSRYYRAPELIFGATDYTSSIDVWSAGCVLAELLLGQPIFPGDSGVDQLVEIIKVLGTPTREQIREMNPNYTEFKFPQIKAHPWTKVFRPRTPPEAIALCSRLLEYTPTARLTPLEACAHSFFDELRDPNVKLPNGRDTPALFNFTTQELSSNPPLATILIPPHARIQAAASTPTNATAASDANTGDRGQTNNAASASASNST
T2 sequence (O75582 whole entry, the tested form may be a part): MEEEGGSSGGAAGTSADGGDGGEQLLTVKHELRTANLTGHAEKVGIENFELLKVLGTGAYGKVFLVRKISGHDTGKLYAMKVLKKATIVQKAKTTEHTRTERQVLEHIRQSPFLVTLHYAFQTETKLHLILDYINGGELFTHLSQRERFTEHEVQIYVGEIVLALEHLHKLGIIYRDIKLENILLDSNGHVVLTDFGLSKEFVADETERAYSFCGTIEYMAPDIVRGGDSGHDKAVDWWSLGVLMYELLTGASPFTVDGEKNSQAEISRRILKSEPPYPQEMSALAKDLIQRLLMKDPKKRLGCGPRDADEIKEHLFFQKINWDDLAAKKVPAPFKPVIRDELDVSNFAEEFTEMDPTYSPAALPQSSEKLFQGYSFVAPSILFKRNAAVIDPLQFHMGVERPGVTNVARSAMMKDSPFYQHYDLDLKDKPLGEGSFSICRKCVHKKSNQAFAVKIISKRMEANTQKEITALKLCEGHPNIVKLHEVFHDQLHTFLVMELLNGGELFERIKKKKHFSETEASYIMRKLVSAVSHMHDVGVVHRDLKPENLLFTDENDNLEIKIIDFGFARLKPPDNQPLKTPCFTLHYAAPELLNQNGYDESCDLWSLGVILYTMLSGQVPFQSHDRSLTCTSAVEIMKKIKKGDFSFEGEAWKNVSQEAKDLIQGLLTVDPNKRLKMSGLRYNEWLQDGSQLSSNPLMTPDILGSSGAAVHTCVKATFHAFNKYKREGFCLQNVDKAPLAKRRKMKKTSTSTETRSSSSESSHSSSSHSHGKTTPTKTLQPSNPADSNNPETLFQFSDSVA
T8 sequence (P68400 whole entry, the tested form may be a part): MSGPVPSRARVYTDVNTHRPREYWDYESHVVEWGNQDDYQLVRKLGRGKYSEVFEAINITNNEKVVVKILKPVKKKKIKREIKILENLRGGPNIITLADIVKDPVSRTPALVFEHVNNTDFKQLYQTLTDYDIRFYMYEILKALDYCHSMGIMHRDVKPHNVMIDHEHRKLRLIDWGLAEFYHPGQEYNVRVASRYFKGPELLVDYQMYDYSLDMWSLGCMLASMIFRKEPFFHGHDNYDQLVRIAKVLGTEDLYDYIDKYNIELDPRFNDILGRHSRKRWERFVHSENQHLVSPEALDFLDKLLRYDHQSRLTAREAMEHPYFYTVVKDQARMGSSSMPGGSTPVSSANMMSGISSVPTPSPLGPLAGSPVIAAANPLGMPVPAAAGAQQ
T9 sequence (P15056 whole entry, the tested form may be a part): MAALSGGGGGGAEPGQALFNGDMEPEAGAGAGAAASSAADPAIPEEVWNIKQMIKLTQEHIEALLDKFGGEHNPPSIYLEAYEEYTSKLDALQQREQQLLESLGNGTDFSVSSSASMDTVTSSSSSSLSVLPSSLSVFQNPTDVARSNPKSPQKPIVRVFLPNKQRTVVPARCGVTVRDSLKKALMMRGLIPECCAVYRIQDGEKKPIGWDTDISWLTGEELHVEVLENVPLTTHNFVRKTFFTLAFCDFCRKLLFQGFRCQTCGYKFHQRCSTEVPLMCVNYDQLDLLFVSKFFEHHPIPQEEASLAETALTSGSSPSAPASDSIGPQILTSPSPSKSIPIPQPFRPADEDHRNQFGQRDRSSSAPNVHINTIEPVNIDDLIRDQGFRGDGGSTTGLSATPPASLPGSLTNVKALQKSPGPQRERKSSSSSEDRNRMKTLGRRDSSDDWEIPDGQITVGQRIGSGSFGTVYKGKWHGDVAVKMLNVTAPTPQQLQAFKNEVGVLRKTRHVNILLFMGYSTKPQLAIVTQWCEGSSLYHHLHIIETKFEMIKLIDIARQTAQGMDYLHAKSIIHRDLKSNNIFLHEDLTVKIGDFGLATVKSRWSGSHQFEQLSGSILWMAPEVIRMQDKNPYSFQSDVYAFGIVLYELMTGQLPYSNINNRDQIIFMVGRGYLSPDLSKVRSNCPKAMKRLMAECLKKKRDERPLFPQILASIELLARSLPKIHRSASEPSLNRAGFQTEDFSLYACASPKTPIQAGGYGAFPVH
T5 sequence (P27448 whole entry, the tested form may be a part): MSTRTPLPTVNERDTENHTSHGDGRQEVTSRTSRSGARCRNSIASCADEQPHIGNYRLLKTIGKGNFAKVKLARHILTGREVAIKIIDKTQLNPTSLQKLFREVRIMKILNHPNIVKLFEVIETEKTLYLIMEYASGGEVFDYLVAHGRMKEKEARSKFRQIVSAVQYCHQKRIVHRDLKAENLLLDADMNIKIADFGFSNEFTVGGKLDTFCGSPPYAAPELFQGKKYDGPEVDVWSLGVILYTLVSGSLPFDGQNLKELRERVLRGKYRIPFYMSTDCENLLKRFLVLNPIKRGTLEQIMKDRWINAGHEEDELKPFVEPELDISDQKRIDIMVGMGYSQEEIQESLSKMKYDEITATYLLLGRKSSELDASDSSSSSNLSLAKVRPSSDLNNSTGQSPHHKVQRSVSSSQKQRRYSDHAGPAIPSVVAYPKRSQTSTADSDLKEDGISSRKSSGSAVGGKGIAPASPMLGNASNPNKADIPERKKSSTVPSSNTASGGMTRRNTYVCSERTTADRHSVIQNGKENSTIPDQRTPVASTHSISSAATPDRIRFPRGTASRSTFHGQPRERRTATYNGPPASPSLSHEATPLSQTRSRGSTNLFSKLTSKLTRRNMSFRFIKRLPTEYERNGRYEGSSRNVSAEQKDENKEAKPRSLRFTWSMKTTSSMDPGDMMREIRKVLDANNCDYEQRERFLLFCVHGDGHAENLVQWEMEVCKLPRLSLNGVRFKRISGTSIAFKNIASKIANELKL
T4 sequence (Q8TDX7 whole entry, the tested form may be a part): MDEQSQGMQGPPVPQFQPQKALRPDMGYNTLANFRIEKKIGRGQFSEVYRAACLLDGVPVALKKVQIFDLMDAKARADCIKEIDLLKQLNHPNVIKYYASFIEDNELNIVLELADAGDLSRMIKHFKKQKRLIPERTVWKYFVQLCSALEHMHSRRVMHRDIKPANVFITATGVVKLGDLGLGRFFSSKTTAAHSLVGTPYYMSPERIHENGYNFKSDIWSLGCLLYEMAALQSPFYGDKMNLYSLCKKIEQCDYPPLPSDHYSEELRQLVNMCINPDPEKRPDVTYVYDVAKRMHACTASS

As for `O=C(Nc1cccc(-c2c[nH]c3ncnc(N4CCOCC4)c23)c1)C1(C(=O)Nc2ccc(F)c(Cl)c2)CC1` [Compound 18], the dTm in test [1] is listed as 1.71 K; in test [2] it was -1.56 K; in test [3], 9.62 K; in test [4], 1.61 K; in [5] it was 7.07 K; in [6], 1.59 K. The dTm is given as 3.34 K in test [7], -0.75 K in test [8], 10.73 K in [9] and 2.24 K in [10].

Regarding `CCc1ccc(NC(=O)C2(C(=O)Nc3cccc(-c4c[nH]c5ncnc(N6CCOCC6)c45)c3)CC2)cc1` [Compound 15], the dTm is given as 1.12 K in [1]; 2.22 K in [2]; 5.12 K in [3]; -0.42 K in test [4]; 6.20 K in test [5]; 0.37 K in test [6]. Besides, the dTm in test [7] is on record as 2.51 K; in test [8], 2.19 K; in test [9], 9.26 K; in test [10], 1.18 K.

Consider `CCNc1nc(Nc2cc(F)c(C(=O)N3CCOCC3)cc2OC)ncc1C(F)(F)F` [GNE-7915], for which the dTm in test [1] was determined as 0.12 K; in test [2] it was 3.91 K; in test [3] it was 3.70 K; in test [4], 0.34 K; in test [5], 0.65 K; in test [6], 2.33 K. Also, the dTm in [7] is listed as 0.15 K; in test [8], 1.87 K; in test [9], 1.48 K; in test [10] it was 0.28 K.

As to `COc1cc(S(C)(=O)=O)ccc1Nc1nc(N(C)C)c2c(Cl)c[nH]c2n1` [Compound 37], the dTm is -0.55 K in test [1]; 1.80 K in test [2]; -0.25 K in [4]; 0.75 K in test [5]; -0.61 K in test [6]; -0.60 K in test [7]. Also, the figures for the dTm in test [8], in test [9] and in test [10] were 0.51 K, 0.14 K and 3.58 K, respectively.

Take `CNC(=O)c1cc(Oc2ccc(NC(=O)Nc3cc(C(C)(C)C)nn3-c3ccc4ncccc4c3)c(F)c2)ccn1` [Rebastinib, reference compound]: the dTm in [1] was determined as 0.52 K; in test [3], 11.89 K; in [4], 3.06 K; in test [5], 0.56 K; in test [7] it was 1.22 K; in test [10] it was 1.13 K.

Take `COc1cc(C(=O)N2CCOCC2)c(F)cc1Nc1nc(N(C)C)c2c(Cl)c[nH]c2n1` [Compound 36]: the dTm in [1] is -1.69 K; in [2], 2.79 K; in test [4], -0.65 K; in test [5] it was -1.24 K; in test [6], -0.62 K; in [7] it was 1.63 K. The dTm is 2.03 K in test [8], -0.49 K in test [9] and 2.35 K in test [10].

For `COc1cc2c(Oc3ccc(NC(=O)C4(C(=O)Nc5ccc(F)cc5)CC4)cc3F)ccnc2cc1OCCCN1CCOCC1` [Foretinib, reference compound], the dTm was 1.05 K in test [1]; 0.57 K in test [2]; 3.46 K in test [3]; -0.49 K in [4]; 3.96 K in test [5]; 13.18 K in test [6]. Moreover, the dTm in [8] is on record as 0.00 K; in test [9] it was 6.96 K; in test [10], 0.70 K.

As for `Cc1ccc(-n2nc(C(C)(C)C)cc2NC(=O)Nc2cccc(-c3c[nH]c4nc(Cl)nc(N5CCOCC5)c34)c2)cc1` [Compound 30], the dTm in test [1] is recorded as -1.13 K; in [2], 7.61 K; in test [4], -1.05 K; in test [5], -0.48 K; in test [6], -1.91 K; in test [7], -1.02 K. Moreover, the dTm in [8] was found to be 0.59 K; in test [9], 18.85 K; in [10] it was 1.34 K.

Consider `CC(=O)N1CCN(c2nc(Cl)nc3[nH]cc(-c4cccc(NC(=O)Nc5cc(C(C)(C)C)nn5-c5ccc(C)cc5)c4)c23)CC1` [Compound 31], for which the dTm in test [1] was -1.18 K; in [2] it was 8.01 K; in test [4], -0.91 K; in [5], -0.26 K; in test [6], 0.10 K; in test [7] it was -0.77 K. For the same compound, the dTm in [8] is 0.26 K; in [9], 4.38 K; in [10], 1.08 K.

As for `CN[C@@H]1C[C@H]2O[C@@](C)([C@@H]1OC)n1c3ccccc3c3c4c(c5c6ccccc6n2c5c31)C(=O)NC4` [Staurosporine], the dTm in [2] was found to be 13.79 K; in [6] it was 6.40 K; in [7], 8.45 K; in [10], 9.01 K.

In the case of `Cc1ccc(C(=O)Nc2ccc(CN3CCN(C)CC3)c(C(F)(F)F)c2)cc1C#Cc1cnc2cccnn12` [Ponatinib, reference compound], the dTm in test [4] amounted to 0.07 K; in test [6], 4.58 K; in test [7], 1.32 K; in test [9] it was 36.88 K.

On to `Cc1ccc(-n2nc(C(C)(C)C)cc2NC(=O)Nc2cccc(-c3c[nH]c4ncnc(N5CCOCC5)c34)c2)cc1` [Compound 29], for which the dTm is listed as -0.55 K in test [1]; 11.96 K in test [2]; -0.81 K in [4]; 2.95 K in [5]; 2.79 K in test [6]; 2.94 K in [7]. Moreover, the results for the dTm in [8], in [9] and in [10] were 0.69 K, 37.18 K and 6.45 K, respectively.
